Assay [1] deals with T1, cyclooxygenase-2 (microsomes of human osteosarcoma 143 cells) (Homo sapiens, UniProt P35354).
T1 construct: from which microsomes were prepared for microsomal assays, were human osteosarcoma 143 cells; endogenous in cells; host or cells: microsomes of human osteosarcoma 143 cells
T1 sequence (P35354 18-604): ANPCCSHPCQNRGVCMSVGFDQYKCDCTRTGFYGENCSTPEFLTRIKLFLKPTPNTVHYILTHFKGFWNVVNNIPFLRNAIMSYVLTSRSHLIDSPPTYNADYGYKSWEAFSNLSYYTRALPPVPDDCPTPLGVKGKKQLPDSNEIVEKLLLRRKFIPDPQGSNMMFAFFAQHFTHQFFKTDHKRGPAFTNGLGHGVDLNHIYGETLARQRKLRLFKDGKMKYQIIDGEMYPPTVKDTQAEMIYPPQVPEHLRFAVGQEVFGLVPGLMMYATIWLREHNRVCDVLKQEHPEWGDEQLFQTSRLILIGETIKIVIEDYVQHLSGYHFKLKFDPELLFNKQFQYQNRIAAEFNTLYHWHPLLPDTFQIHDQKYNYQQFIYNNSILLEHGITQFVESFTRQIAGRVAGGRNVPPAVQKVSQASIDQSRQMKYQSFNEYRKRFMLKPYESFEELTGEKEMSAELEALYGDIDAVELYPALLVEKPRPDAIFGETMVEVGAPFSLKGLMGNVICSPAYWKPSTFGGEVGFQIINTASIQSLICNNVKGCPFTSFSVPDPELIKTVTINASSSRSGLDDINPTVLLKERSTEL
Description: Microsomal cyclooxygenase assay (COX-2). The format is biochemical. As to conditions: Conc. 100 nM; read-out: Microsomes COX-2 % inhib. The protocol:
(§1) Compounds were tested as inhibitors of cyclooxygenase activity in whole cell and microsomal cyclooxygenase assays. Both of these assays measured prostaglandin E2 (PGE2) synthesis in response to arachidonic acid, using a radioimmunoassay. Cells used for whole cell assays, and from which microsomes were prepared for microsomal assays, were human osteosarcoma 143 cells (which specifically express cyclooxygenase-2) and human U-937 cells (which specifically express cyclooxygenase-1). In these assays, 100% activity is defined as the difference between prostaglandin E2 synthesis in the absence and presence-of arachidonate addition.

For assay [2], the target named is T2, cyclooxygenase-2 (human osteosarcoma 143 cells) (Homo sapiens, UniProt P35354).
T2 construct: human osteosarcoma 143 cells (which specifically express cyclooxygenase-2); endogenous in cells; host or cells: human osteosarcoma 143 cells
T2 sequence (P35354 18-604): T1 sequence (P35354 18-604)
Nature of the assay: Whole cell cyclooxygenase assay, PGE2 synthesis by radioimmunoassay (COX-2). The format is cell-based. The settings on record: read-out: Whole Cells COX-2 % inhib. The protocol:
as §1

The target in assay [3] is T3, cyclooxygenase-1 (microsomes of human U-937 cells) (Homo sapiens, UniProt P23219).
T3 construct: human U-937 cells (which specifically express cyclooxygenase-1); endogenous in cells; host or cells: microsomes of human U-937 cells
Description: Microsomal cyclooxygenase assay (COX-1). The format is biochemical. The settings on record: Conc. 100 nM; read-out: Microsomes COX-1 % inhib. The protocol:
as §1

T3 sequence (P23219 24-599): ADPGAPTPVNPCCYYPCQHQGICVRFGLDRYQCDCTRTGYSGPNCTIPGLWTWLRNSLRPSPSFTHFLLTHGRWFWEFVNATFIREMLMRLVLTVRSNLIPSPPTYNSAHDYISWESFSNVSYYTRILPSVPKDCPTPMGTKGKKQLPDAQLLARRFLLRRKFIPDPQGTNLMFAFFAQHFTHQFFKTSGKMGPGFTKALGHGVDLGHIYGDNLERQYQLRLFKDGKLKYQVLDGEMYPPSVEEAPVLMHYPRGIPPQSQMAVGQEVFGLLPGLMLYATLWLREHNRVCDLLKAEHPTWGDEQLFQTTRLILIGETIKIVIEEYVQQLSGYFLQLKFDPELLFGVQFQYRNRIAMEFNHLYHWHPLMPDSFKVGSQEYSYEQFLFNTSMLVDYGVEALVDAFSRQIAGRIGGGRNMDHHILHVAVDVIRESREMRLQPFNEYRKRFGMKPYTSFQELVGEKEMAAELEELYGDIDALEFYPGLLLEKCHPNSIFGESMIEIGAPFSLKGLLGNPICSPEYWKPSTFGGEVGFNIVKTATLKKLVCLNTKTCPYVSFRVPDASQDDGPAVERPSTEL

Consider `CS(=O)(=O)c1ccc(C2=C(c3ccc(F)cc3)C(=O)OC2)cc1` [Example 9, 3-(4-Fluorophenyl)-4-(4-(methylsulfonyl)phenyl)-2-(5H)-furanone], for which the inhibition at 0.1 µM stood at 37% in assay [1], 83% in assay [2] and 9% in assay [3].

These data come from patent US6486194B2, “Use of inhibitors of cyclooxygenase in the treatment of neurodegenerative diseases” (Merck Frosst Canada, Inc., priority 1993, dated 2002).
